# From patent US11414429B2, “Compound or pharmaceutically acceptable salt thereof” (RIKEN, priority 2016, dated 2022)
# Like-named read-outs stand apart in the source and are kept apart here.
# Legend:
# tankyrase 2 (TNKS 2) = biological target: T1, tankyrase 2 (TNKS 2) (Homo sapiens, UniProt Q9H2K2); assay: Tankyrase inhibitory activity test (ELISA, self-polyADP ribosylation), tankyrase 2; type: biochemical; conditions: tankyrase 2, ELISA, self-polyADP ribosylation; read-out: TNKS2 inhibitory activity (IC50 class)
# T1 construct: 613-1, 116aa; made in house; host or cells: cell-free protein synthesis system
# T1 sequence (Q9H2K2 613-1166): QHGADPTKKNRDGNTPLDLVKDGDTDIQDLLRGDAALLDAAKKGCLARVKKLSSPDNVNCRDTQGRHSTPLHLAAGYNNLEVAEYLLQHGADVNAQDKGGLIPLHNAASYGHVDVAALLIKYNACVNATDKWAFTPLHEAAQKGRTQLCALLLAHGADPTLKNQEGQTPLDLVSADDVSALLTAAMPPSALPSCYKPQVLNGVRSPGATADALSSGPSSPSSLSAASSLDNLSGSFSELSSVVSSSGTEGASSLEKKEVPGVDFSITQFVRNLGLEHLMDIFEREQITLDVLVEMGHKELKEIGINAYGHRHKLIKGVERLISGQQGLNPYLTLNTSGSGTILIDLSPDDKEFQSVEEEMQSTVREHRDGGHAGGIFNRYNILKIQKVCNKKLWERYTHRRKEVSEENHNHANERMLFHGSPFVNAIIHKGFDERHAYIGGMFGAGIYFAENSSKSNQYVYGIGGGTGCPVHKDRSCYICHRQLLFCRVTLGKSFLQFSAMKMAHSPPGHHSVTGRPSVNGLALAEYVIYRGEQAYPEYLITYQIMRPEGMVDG
# Method: (§1) (Test Example 1) Tankyrase Inhibitory Activity Test
# (§2) For each of the compounds obtained in Examples (the test target compounds), the tankyrase inhibitory activity (an inhibitory activity against tankyrase 1 (TNKS 1) and an inhibitory activity against tankyrase 2 (TNKS 2)) was evaluated by measuring the enzymatic activity of tankyrase 1 and the enzymatic activity of tankyrase 2 by the ELISA technique using self-polyADP ribosylation as an index. First, Flag-tag fusion tankyrase 1 (1,024-1,327aa, SAM+PARP) and tankyrase 2 (613-1, 116aa, ANK5+SAM+PARP) were each synthesized by a cell-free protein synthesis system and diluted with a Tris buffer (50 mM Tris-HCl (pH 8.0), 150 mM NaCl, 10% glycerol). Then, 50 μL of the diluted tankyrase 1 or tankyrase 2 was added to a plate on which the anti-FLAGM 2 monoclonal antibody was immobilized (Anti-FLAG high sensitivity M2 coated plate) (SIGMA Corporation), and was allowed to stand at 4° C. overnight. Thereafter, the plate was washed four times with a PBS buffer containing 0.1% Triton X-100 (PBST buffer).
# (§3) Subsequently, the test target compound diluted with an assay buffer (50 mM Tris-HCl (pH 8.0), 4 mM MgCl2, 0.2 mM DTT) (using DMSO as a control) was added to each well of the plate and was allowed to stand at room temperature for 10 minutes. Thereafter, a biotin-labeled NAD solution (225 μM NAD, 25 μM 6-Biotin-17-NAD (Trevigen Inc.)) was added as a donor substrate and mixed with the resultant test target compound, and the reaction was allowed to proceed at 30° C. for 45 minutes. Instead of the biotin-labeled NAD solution, distilled water was added to blank wells. After the reaction, the plate was washed four times with the PBST buffer. Thereafter, HRP (horseradish peroxidase)-labeled streptavidin (Trevigen Inc.) diluted 1,000-fold with the PBS buffer was added to each well, and the reaction was allowed to proceed at room temperature for 20 minutes. After the plate was washed four times with the PBST buffer, a chemiluminescent substrate solution TACS-Sapphire (Trevigen Inc.) was added to each well and the reaction was allowed to proceed at room temperature for 20 minutes. Then, the chemiluminescence intensity was measured using a chemiluminescence measuring apparatus.
# (§4) The residual enzyme activity in the presence of the test target compound was determined in accordance with the following formula. Based on the residual enzyme activity at multiple concentrations of the test target compound, an enzyme inhibition activity was calculated as a 50% inhibitory concentration (IC50 value) using data analysis software named Origin (LightStone Corp.).
# tankyrase 1 (TNKS 1) = biological target: T2, tankyrase 1 (TNKS 1) (Homo sapiens, UniProt O95271); assay: Tankyrase inhibitory activity test (ELISA, self-polyADP ribosylation), tankyrase 1; type: biochemical; conditions: tankyrase 1, ELISA, self-polyADP ribosylation; read-out: TNKS1 inhibitory activity (IC50 class)
# T2 construct: 1,024-1,327aa; made in house; host or cells: cell-free protein synthesis system
# T2 sequence (O95271 1024-1327): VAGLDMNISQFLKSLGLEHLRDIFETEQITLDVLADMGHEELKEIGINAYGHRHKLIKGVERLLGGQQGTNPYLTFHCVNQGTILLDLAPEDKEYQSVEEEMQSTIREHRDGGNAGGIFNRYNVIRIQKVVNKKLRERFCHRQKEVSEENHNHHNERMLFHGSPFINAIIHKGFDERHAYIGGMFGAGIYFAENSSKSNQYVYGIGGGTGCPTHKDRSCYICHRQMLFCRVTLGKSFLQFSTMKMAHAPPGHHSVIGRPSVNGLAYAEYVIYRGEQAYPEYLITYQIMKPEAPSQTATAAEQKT
# Method: as §1, §2, §3, §4
# [1] = test system: human colorectal cancer cell line, COLO-320DM; assay: Cell proliferation inhibitory activity test (Celltiter-Glo Luminescent Cell Viability Assay); type: cell-based; conditions: COLO-320DM cells, 96 hours
# Method: (Test Example 2) Cell Proliferation Inhibitory Activity Test
# The cell proliferation inhibitory activity of the compound obtained in each of Examples against human colorectal cancer cell line, COLO-320DM was evaluated by Celltiter-Glo Luminescent Cell Viability Assay (Promega Corporation, G7573). The COLO-320 DM cells were cultured in a RPMI-1640 medium (Wako Pure Chemical Industries, Ltd., 189-02025) containing 10% fetal bovine serum and 2 mM of glutamine. The cultured cells were washed with PBS and then detached with trypsin/EDTA to prepare a cell solution containing 3×10^4 cells/mL.
# Next, the cell solution was seeded in a 96 well microplate (Thermo/Nunc, 136101) in an amount of 70 μL/well and was cultured overnight under conditions at 37° C. with 5% CO2. On the next day, 10 μL/well of a solution in which the test target compound (DMSO solution) was diluted with the cell culture medium (a final DMSO concentration of 1%) was added and the reaction was allowed to proceed under conditions at 37° C. with 5% CO2 for 96 hours (a 1% DMSO solution was used as a control). Subsequently, 80 μL/well of Celltiter-Glo Luminescent Cell Viability Assay reagent (Promega Corporation, G7573) was added, followed by agitation for 2 minutes with a shaker under shielding with aluminum foil. Thereafter, the resultant solution was allowed to stand for reaction at room temperature for 10 minutes.
# After that, the luminescent signal was measured with a luminometer (Biotech, Synergy). The cell proliferation inhibitory activity was evaluated by obtaining a percentage of a cell proliferation volume of each compound-added group with respect to a cell proliferation volume (100%) of a control group in which no test target component solution was added, and calculating a value of compound concentration (GI50) required to reduce the remaining cell volume to 50% of the remaining cell volume of the control. […] The results are shown in Tables 120 to 123 together with the results of the tankyrase inhibition activity test.
# [2] = read-out: COLO-320 DM cell proliferation inhibitory activity (GI50 class)
# [3] = class symbols, read-out: COLO-320 DM (cell proliferation inhibitory activity, GI50 value)
IC50 (tankyrase 2 (TNKS 2)),IC50 (tankyrase 1 (TNKS 1)),"GI50 [1, 2]","GI50 [1, 3]",SMILES
< 0.02 µM,< 0.02 µM,0.6 to 1 µM,–,"CN(C)CCOc1cc(F)c2c(c1)C(=O)OC21CCN(c2nc3c(c(=O)[nH]2)CCCN3C)CC1 [Example 7, 5-[2-(dimethylamino)ethoxy]-7-fluoro-1′-(8-methyl-4-oxo-3,4,5,6,7,8-hexahydropyrido[2,3-d]pyrimidin-2-yl)-3H-spiro[isobenzofuran-1,4′-piperidin]-3-one]"
< 0.02 µM,< 0.02 µM,0.6 to 1 µM,–,"CN(C)C(=O)COc1cc(F)c2c(c1)C(=O)OC21CCN(c2nc3c(c(=O)[nH]2)CCCN3C)CC1 [Example 55, 2-{[7-fluoro-1′-(8-methyl-4-oxo-3,4,5,6,7,8-hexahydro-pyrido[2,3-d)pyrimidin-2-yl)-3-oxo-3H-spiro[isobenzo-furan-1,4′-piperidin)-5-yl)oxy}-N,N-dimethyl-acetamid]"
< 0.02 µM,0.02 to 0.2 µM,0.6 to 1 µM,–,"COc1cccc(CN2CC3(CCN(c4nc5c(c(=O)[nH]4)CCCC5)CC3)c3ccccc32)c1 [Example 99, 2-[1-(3-methoxy-benzyl)spiro[indoline-3,4′-piperidin]-1′-yl]-5,6,7,8-tetrahydroquinazolin-4(3H)-one]"
0.02 to 0.2 µM,< 0.02 µM,0.6 to 1 µM,–,"O=c1[nH]c(N2CCC3(CC2)CN(Cc2ccncc2)c2ccccc23)nc2c1CCCC2 [Example 100, 2-[1-(pyridin-4-ylmethyl)spiro[indoline-3,4′-piperidin]-1′-yl]-5,6,7,8-tetrahydroquinazolin-4(3H)-one]"
0.02 to 0.2 µM,0.02 to 0.2 µM,0.6 to 1 µM,–,"O=c1[nH]c(N2CCC3(CC2)CN(Cc2cccnc2)c2ccccc23)nc2c1CCCC2 [Example 101, 2-[1-(pyridin-3-ylmethyl)spiro[indoline-3,4′-piperidin]-1′-yl]-5,6,7,8-tetrahydroquinazolin-4(3H)-one]"
< 0.02 µM,< 0.02 µM,0.1 to 0.6 µM,–,"CN1CCCc2c1nc(N1CCC3(CC1)C(=O)Nc1cccc(F)c13)[nH]c2=O [Example 185, 2-(4-fluoro-2-oxospiro [indoline-3,4′-piperidin]-1′-yl)-8-methyl-5,6,7,8-tetrahydro-pyrido[2,3-d] pyrimidine-4(3H)-one]"
0.02 to 0.2 µM,0.02 to 0.2 µM,0.1 to 0.6 µM,–,"CCOC(=O)c1cc(Cl)c2c(c1)N(Cc1cccnc1)CC21CCN(c2nc3c(c(=O)[nH]2)CCCC3)CC1 [Example 193, ethyl 4-chloro-1′-(4-oxo-3,4,5,6,7,8-hexahydroquinazolin-2-yl)-1-(pyridin-3-yl) methylspiro [indoline-3,4′-piperidine]-6-carboxylate]"
< 0.02 µM,< 0.02 µM,0.6 to 1 µM,–,"O=C(NCCN1CCOCC1)c1cc(Cl)c2c(c1)N(Cc1cccnc1)CC21CCN(c2nc3c(c(=O)[nH]2)CCCC3)CC1 [Example 196, 4-chloro-N-(2-morpho-linoethyl)-1′-(4-oxo-3,4,5,6,7,8-hexahydro-quinazolin-2-yl)-1-(pyridin-3-ylmethyl) spiro[indoline-3,4′-piperidine]-6-carboxamide]"
< 0.02 µM,0.02 to 0.2 µM,0.6 to 1 µM,–,"O=c1[nH]c(N2CCC3(CC2)CN(Cc2cccnc2)c2cc(Cl)ccc23)nc2c1CCCC2 [Example 218, 2-(6-chloro-1-(pyridin-3-ylmethyl)spiro [indoline-3,4′-piperidin]-1′-yl)-5,6,7,8-tetrahydro-quinazolin-4(3H)-one]"
< 0.02 µM,< 0.02 µM,0.1 to 0.6 µM,–,"O=c1[nH]c(N2CCC3(CC2)CN(Cc2cccnc2)c2cccc(Cl)c23)nc2c1CCCC2 [Example 221, 2-[4-chloro-1-(pyridin-3-yl)methylspiro [indoline-3,4′-piperidin] 1′-yl)-5,6,7,8-tetrahydro quinazolin-4(3H)-one]"
< 0.02 µM,< 0.02 µM,0.1 to 0.6 µM,–,"O=C1N(Cc2cccnc2)c2cccc(Cl)c2C12CCN(c1nc3c(c(=O)[nH]1)CCCC3)CC2 [Example 226, 4-chloro-1′-(4-oxo-3,4,5,6,7,8-hexahydroquinazolin-2-yl)-1-(pyridin-3-ylmethyl) spiro [indoline-3,4′-piperidin]-2-one]"
< 0.02 µM,< 0.02 µM,0.1 to 0.6 µM,–,"CN1C(=O)C2(CCN(c3nc4c(c(=O)[nH]3)CCCC4)CC2)c2c(Cl)cc(O)cc21 [Example 234, 4-chloro-6-hydroxy-1-methyl-1′-(4-oxo-3,4,5,6,7,8-hexahydro-quinazolin-2-yl)spiro [indoline-3,4′-piperidin]-2-one]"
< 0.02 µM,< 0.02 µM,0.1 to 0.6 µM,–,"O=c1[nH]c(N2CCC3(CC2)CN(Cc2cccnc2)c2cc(F)cc(F)c23)nc2c1CCCC2 [Example 251, 2-[4,6-difluoro-1-(pyridin-3-yl)methyl-spiro [indoline-3,4′-piperidin]-1′-yl]-5,6,7,8-tetrahydro-quinazolin-4(3H)-one]"
< 0.02 µM,< 0.02 µM,0.1 to 0.6 µM,–,"O=c1[nH]c(N2CCC3(CC2)CN(Cc2cncnc2)c2cc(F)cc(F)c23)nc2c1CCCC2 [Example 252, 2-[4,6-difluoro-1-(pyrimidin-5-yl)methyl-spiro [indoline-3,4′-piperidin]-1′-yl]-5,6,7,8-tetrahydro-quinazolin-4(3H)-one]"
–,–,–,< 0.1 µM,CN1CCCc2c1nc(N1CCC3(CC1)C(=O)N(CC(F)(F)F)c1cc(OCC(=O)O)cc(F)c13)[nH]c2=O [Example 408]
–,–,–,< 0.1 µM,"CN1CCCc2c1nc(N1CCC3(CC1)C(=O)N(C)c1cc(C4CCC(O)CC4)cc(F)c13)[nH]c2=O (stereo not drawn) [Example 468, 4-fluoro-6-(4-hydroxycyclohexyl)-1-methyl-1′-(8-methyl-4-oxo-3,4,5,6,7,8-hexahydropyrido[2,3-d]pyrimidin-2-yl)spiro[indole-3,4′-piperidine]-2(1H)-one]"

SMILES,IC50 (tankyrase 2 (TNKS 2)),IC50 (tankyrase 1 (TNKS 1)),"GI50 [1, 2]","GI50 [1, 3]"
"COc1ccc2c(c1)C1(CCN(c3nc4c(c(=O)[nH]3)CCCC4)CC1)CN2C [Example 147, 2-(5-methoxy-1-meth-ylspiro[indoline-3,4′-piperidin]-1′-yl)-5,6,7,8-tetrahydroquinazolin-4(3H)-one]",< 0.02 µM,0.02 to 0.2 µM,0.6 to 1 µM,–
"CN1CCCc2c1nc(N1CCC3(CC1)C(=O)N(C)c1c(OC4CCOC4)ccc(Cl)c13)[nH]c2=O (stereo not drawn) [Example 433, 4-chloro-1′-(4-hydroxy-8-methyl-6,7-dihydro-5H-pyrido[2,3-d]pyrimidin-2-yl)-1-methyl-7-(oxolan-3-yloxy) spiro[indole-3,4′-piperidin]-2-one]",–,–,–,< 0.1 µM
